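GI50 is the concentration that inhibits growth by half. TGI: concentration producing complete growth inhibition.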
Assays:
Test in all cases: DTP human tumour cell line panel, 384-well format
CCRF-CEM leukemia = tested on: CCRF-CEM leukemia
HS 578T breast = tested on: HS 578T breast
OVCAR-3 ovarian = tested on: OVCAR-3 ovarian
CAKI-1 renal = tested on: CAKI-1 renal
UACC-62 melanoma = tested on: UACC-62 melanoma
SF-268 CNS = tested on: SF-268 CNS
OVCAR-5 ovarian = tested on: OVCAR-5 ovarian
LOX IMVI melanoma = tested on: LOX IMVI melanoma
UO-31 renal = tested on: UO-31 renal
HL-60(TB) leukemia = tested on: HL-60(TB) leukemia
BT-549 breast = tested on: BT-549 breast
HOP-62 NSCLC = tested on: HOP-62 NSCLC
NCI/ADR-RES ovarian = tested on: NCI/ADR-RES ovarian

`O=C(c1cc(Cc2n[nH]c(=O)c3ccccc23)ccc1F)N1CCN(C(=O)C2CC2)CC1` gave a GI50 (CCRF-CEM leukemia) of 6.5 µM, a TGI (CCRF-CEM leukemia) of over 100 µM and a GI50 (HS 578T breast) of 25.9 µM. It also gave a TGI (HS 578T breast) of over 100 µM, a GI50 (OVCAR-3 ovarian) of 60.5 µM and a TGI (OVCAR-3 ovarian) of over 100 µM. For the same compound, the GI50 (CAKI-1 renal) was 52.4 µM, the TGI (CAKI-1 renal) was over 100 µM and the GI50 (UACC-62 melanoma) was over 95.7 µM. It also gave a TGI (UACC-62 melanoma) of over 100 µM, a GI50 (SF-268 CNS) of 24.9 µM and a TGI (SF-268 CNS) of over 90.3 µM. It also gave a GI50 (OVCAR-5 ovarian) of over 100 µM, a TGI (OVCAR-5 ovarian) of over 100 µM and a GI50 (LOX IMVI melanoma) of 23 µM. The TGI (LOX IMVI melanoma) was over 100 µM, the GI50 (UO-31 renal) was over 92.7 µM and the TGI (UO-31 renal) was over 100 µM. For the same compound, the GI50 (HL-60(TB) leukemia) was 21.2 µM, the TGI (HL-60(TB) leukemia) was over 100 µM and the GI50 (BT-549 breast) was 17.2 µM. For the same compound, the TGI (BT-549 breast) was over 75.8 µM, the GI50 (HOP-62 NSCLC) was 4.92 µM and the TGI (HOP-62 NSCLC) was over 75.5 µM. For the same compound, the GI50 (NCI/ADR-RES ovarian) was over 100 µM and the TGI (NCI/ADR-RES ovarian) was over 100 µM.
